Measured values from ChEMBL document CHEMBL6115036, “Exploration of membrane-active cephalosporin derivatives as potent antibacterial agents against Staphylococcus aureus biofilms and persisters” (Eur J Med Chem, 2025).
In brackets after ≈: the same amount, converted by molar mass. Activity calls are given as the source filed them. No cut-off for these calls is given here.

Legend:
[1] = Hemolytic activity in sheep red blood cells incubated for 1 hr; assay type: toxicity, cell-based, Ovis aries, Erythrocyte
Enterococcus faecalis = assay: Antimicrobial activity against Enterococcus faecalis incubated for 16 to 18 hrs by broth dilution assay; assay type: functional; settings: time 16-18 hrs
Staphylococcus aureus [2] = assay: Induction of cytoplasmic membrane depolarization in Staphylococcus aureus assessed as increase in fluorescence intensity at 16 ug/ml measured for 20 mins by DiSC3(5) dye based analysis; assay type: functional, organism-based; settings: dose 16.0 µg/ml
Escherichia coli = assay: Antimicrobial activity against Escherichia coli incubated for 16 to 18 hrs by broth dilution assay; assay type: functional; settings: time 16-18 hrs
[3] = system: Stenotrophomonas maltophilia; assay: Antimicrobial activity against Stenotrophomonas maltophilia incubated for 16 to 18 hrs by broth dilution assay; assay type: functional; settings: time 16-18 hrs
Staphylococcus aureus [4] = assay: Induction of inner membrane permeability in Staphylococcus aureus assessed as increase in fluorescence intensity at 16 ug/ml measured for 20 mins by PI dye based analysis; assay type: functional, organism-based; settings: dose 16.0 µg/ml
Staphylococcus aureus [5] = assay: Antimicrobial activity against Staphylococcus aureus incubated for 16 to 18 hrs by broth dilution assay; assay type: functional; settings: time 16-18 hrs

SMILES	HC50 at 1 h [1] [µg/mL]	MIC (Enterococcus faecalis) [µg/mL]	Activity (Staphylococcus aureus [2])	MIC (Escherichia coli) [µg/mL]	MIC [3] [µg/mL]	Activity (Staphylococcus aureus [4])	MIC (Staphylococcus aureus [5]) [µg/mL]
CCCCCCCCNC(=O)c1ccc[n+](CC2=C(C(=O)O)N3C(=O)[C@@H](NC(=O)Cc4ccccc4)[C@H]3SC2)c1.[I-]	> 1280	8	inactive	> 128	> 128	inactive	0.031
CCCCCCCCCCNC(=O)c1cc[n+](CC2=C(C(=O)OCc3ccc(OC)cc3)N3C(=O)[C@@H](NC(=O)Cc4ccccc4)[C@H]3SC2)cc1.[I-]			Active			Active	0.25
CCCCCC[n+]1ccc(-c2cc[n+](CC3=C(C(=O)OCc4ccc(OC)cc4)N4C(=O)[C@@H](NC(=O)Cc5ccccc5)[C@H]4SC3)cc2)cc1.[I-].[I-]	> 1280	64		64	64		0.5
CCCCCCCCCCCCCCNC(=O)c1cc[n+](CC2=C(C(=O)O)N3C(=O)[C@@H](NC(=O)Cc4ccccc4)[C@H]3SC2)cc1.[I-]	151	16	inactive	> 128	> 128	inactive	4
CCCCCC[n+]1ccc(SCC2=C(C(=O)OCc3ccc(OC)cc3)N3C(=O)[C@@H](NC(=O)Cc4ccccc4)[C@H]3SC2)cc1.O=C([O-])C(F)(F)F		16		64	64		0.063
CCCCCCCCNC(=O)c1cc[n+](CC2=C(C(=O)OCc3ccc(OC)cc3)N3C(=O)[C@@H](NC(=O)Cc4ccccc4)[C@H]3SC2)cc1.[I-]			Active			Active	0.25
CCCCCCCCCCCCNC(=O)c1ccc[n+](CC2=C(C(=O)OCc3ccc(OC)cc3)N3C(=O)[C@@H](NC(=O)Cc4ccccc4)[C@H]3SC2)c1.[I-]							0.25
CCCCCCCCCC[n+]1ccc(C(=O)N[C@@H]2C(=O)N3C(C(=O)O)=C(COC(C)=O)CS[C@H]23)cc1.[I-]		128		> 128	> 128		128
CCCC[n+]1ccc(SCC2=C(C(=O)O)N3C(=O)[C@@H](NC(=O)Cc4ccccc4)[C@H]3SC2)cc1.O=C([O-])C(F)(F)F		8		4	8		0.063
O=C(Cc1ccccc1)N[C@@H]1C(=O)N2C(C(=O)O)=C(CSc3ccncc3)CS[C@H]12		16 (≈ 36.2 µM)		64 (≈ 145 µM)	64 (≈ 145 µM)		0.063 (≈ 0.143 µM)
CC[n+]1ccc(SCC2=C(C(=O)OCc3ccc(OC)cc3)N3C(=O)[C@@H](NC(=O)Cc4ccccc4)[C@H]3SC2)cc1.O=C([O-])C(F)(F)F		16		16	16		0.125
CCCCCCNC(=O)c1ccc[n+](CC2=C(C(=O)OCc3ccc(OC)cc3)N3C(=O)[C@@H](NC(=O)Cc4ccccc4)[C@H]3SC2)c1.[I-]							0.25
CCCCCCCCCCCCCCNC(=O)c1ccc[n+](CC2=C(C(=O)OCc3ccc(OC)cc3)N3C(=O)[C@@H](NC(=O)Cc4ccccc4)[C@H]3SC2)c1.[I-]							0.25
CCCC[n+]1ccc(SCC2=C(C(=O)OCc3ccc(OC)cc3)N3C(=O)[C@@H](NC(=O)Cc4ccccc4)[C@H]3SC2)cc1.O=C([O-])C(F)(F)F		16		16	32		0.125
CCCCCC[n+]1ccc(-c2cc[n+](CC3=C(C(=O)[O-])N4C(=O)[C@@H](NC(=O)Cc5ccccc5)[C@H]4SC3)cc2)cc1.O=C([O-])C(F)(F)F	> 1280	16		16	16		0.125
CCCC[n+]1ccc(C(=O)N[C@@H]2C(=O)N3C(C(=O)O)=C(COC(C)=O)CS[C@H]23)cc1.[I-]		> 128		> 128	> 128		> 128
CCCCCCNC(=O)c1cc[n+](CC2=C(C(=O)OCc3ccc(OC)cc3)N3C(=O)[C@@H](NC(=O)Cc4ccccc4)[C@H]3SC2)cc1.[I-]							0.25
CCCCCCNC(=O)c1ccc[n+](CC2=C(C(=O)O)N3C(=O)[C@@H](NC(=O)Cc4ccccc4)[C@H]3SC2)c1.[I-]	> 1280	16		64	64		0.125

SMILES	HC50 at 1 h [1] [µg/mL]	MIC (Enterococcus faecalis) [µg/mL]	Activity (Staphylococcus aureus [2])	MIC (Escherichia coli) [µg/mL]	MIC [3] [µg/mL]	Activity (Staphylococcus aureus [4])	MIC (Staphylococcus aureus [5]) [µg/mL]
CCCCCCCCNC(=O)c1ccc[n+](CC2=C(C(=O)OCc3ccc(OC)cc3)N3C(=O)[C@@H](NC(=O)Cc4ccccc4)[C@H]3SC2)c1.[I-]			Active			Active	0.25
CCCCNC(=O)c1ccc[n+](CC2=C(C(=O)OCc3ccc(OC)cc3)N3C(=O)[C@@H](NC(=O)Cc4ccccc4)[C@H]3SC2)c1.[I-]							0.25
CC(=O)OCC1=C(C(=O)O)N2C(=O)[C@@H](NC(=O)c3cc[n+](C)cc3)[C@H]2SC1.[I-]		> 128		> 128	> 128		128
CCCC[n+]1ccc(C(=O)N[C@@H]2C(=O)N3C(C(=O)OC(c4ccccc4)c4ccccc4)=C(COC(C)=O)CS[C@H]23)cc1.[I-]		128		> 128	> 128		128
CCCCCCCCCCNC(=O)c1ccc[n+](CC2=C(C(=O)OCc3ccc(OC)cc3)N3C(=O)[C@@H](NC(=O)Cc4ccccc4)[C@H]3SC2)c1.[I-]			Active			Active	0.25
CC(=O)OCC1=C(C(=O)OC(c2ccccc2)c2ccccc2)N2C(=O)[C@@H](NC(=O)c3cc[n+](C)cc3)[C@H]2SC1.[I-]		> 128		> 128	> 128		128
CCCCCCCC[n+]1ccc(-c2cc[n+](CC3=C(C(=O)OCc4ccc(OC)cc4)N4C(=O)[C@@H](NC(=O)Cc5ccccc5)[C@H]4SC3)cc2)cc1.[I-].[I-]	> 1280	32		128	128		0.5
CCCCCCNC(=O)c1cc[n+](CC2=C(C(=O)O)N3C(=O)[C@@H](NC(=O)Cc4ccccc4)[C@H]3SC2)cc1.[I-]	> 1280	16		64	64		0.125
CCCCCCCC[n+]1ccc(-c2cc[n+](CC3=C(C(=O)[O-])N4C(=O)[C@@H](NC(=O)Cc5ccccc5)[C@H]4SC3)cc2)cc1.O=C([O-])C(F)(F)F	> 1280	16		64	64		0.125
CCCCNC(=O)c1ccc[n+](CC2=C(C(=O)O)N3C(=O)[C@@H](NC(=O)Cc4ccccc4)[C@H]3SC2)c1.[I-]	> 1280	32		64	128		0.125
C[C@@H](O)[C@H]1C(=O)N2C(C(=O)O)=C(S[C@@H]3CN[C@H](C(=O)N(C)C)C3)[C@H](C)[C@H]12 [MEROPENEM]	> 1280			0.031 (≈ 0.0808 µM)	0.031 (≈ 0.0808 µM)		
CCCCNC(=O)c1cc[n+](CC2=C(C(=O)OCc3ccc(OC)cc3)N3C(=O)[C@@H](NC(=O)Cc4ccccc4)[C@H]3SC2)cc1.[I-]							0.25
CCCCNC(=O)c1cc[n+](CC2=C(C(=O)O)N3C(=O)[C@@H](NC(=O)Cc4ccccc4)[C@H]3SC2)cc1.[I-]	> 1280	32		32	64		0.125
CCCCCC[n+]1ccc(SCC2=C(C(=O)O)N3C(=O)[C@@H](NC(=O)Cc4ccccc4)[C@H]3SC2)cc1.O=C([O-])C(F)(F)F		8		32	32		0.063
CC(=O)OCC1=C(C(=O)O)N2C(=O)[C@@H](NC(=O)c3ccncc3)[C@H]2SC1		> 128		> 128	> 128		16 (≈ 42.4 µM)
CC[n+]1ccc(SCC2=C(C(=O)O)N3C(=O)[C@@H](NC(=O)Cc4ccccc4)[C@H]3SC2)cc1.O=C([O-])C(F)(F)F		8		8	8		0.063
COc1ccc(COC(=O)C2=C(C[n+]3ccccc3)CS[C@@H]3[C@H](NC(=O)Cc4ccccc4)C(=O)N23)cc1.[I-]							0.25
